Patent US12616751B2, “Photosensitizing antibody-fluorophore conjugates” (The USA, as represented by the Secretary, Department of …, priority 2010, dated 2026)
Where “and” joins values, the source holds several entries; their conditions need not be identical. Identical values can stand only once. Entries after “also recorded” stand apart in the source; their conditions may differ.

How the values were obtained:
3T3/HER2 tumor = experiment: In vivo fluorescence imaging of Pan-IR700 in HER1 negative tumor; parameters: species or system mice; conditions: mouse, listed as Pan-1R700
Method: To confirm antigen specific localization of Pan-IR700, 1×10^6 of 3T3/HER2 cells (HER1 negative) were injected subcutaneously in the right dorsum at the same time of A431 cells injection. […] Regions of interest (ROI) for both tumor and background were placed for equivalent sized areas containing the same number of pixels. Tumor to background ratio (TBR) was calculated using the following formula: TBR=((mean tumor intensity)−(mean background intensity))/((mean non-tumor intensity)−(mean background intensity)).

A431 cells [1] = experiment: Cell pellet FLT studies; type: cell-based
Method: Reagents. […] All other chemicals used were of reagent grade. […] Then the mixture was purified with a Sephadex G50 column (PD-10; GE Healthcare). The protein concentrations were determined with Coomassie Plus protein assay kit (Pierce Biotechnology) by measuring light absorption at 595 nm (8453 Value System; Agilent Technologies). […] The number of IR700 per antibody was approximately 4 for the 1:4.5 reaction conditions. The addition of 0.4% SDS to the sample dissociated the fluorophores from each other, effectively causing dequenching. Quenching efficiency (QE) for a particular conjugation is defined as the fluorescence intensity with SDS divided by fluorescence intensity without SDS. […] Pan-1R700 was kept at 4° C. in the refrigerator as a stock solution. Fluorescence lifetime measurements. FLT experiments were performed with the eXplore OptixTm-MX2 system (ART Advanced Research Technologies, Inc.) (Hutchinson et al., Biophys J 68:1574-82, 1995; Ma et al., Appl Opt 46:1650-7, 2007). […] Lifetime values and lifetime mapping were calculated to fit fluorescence temporal point-spread functions (TPSFs) as single-exponential models with the Fit TPSF tool. […] Power densities were measured with an optical power meter (PM 100, Thorlabs). […] The fluorescence intensities and lifetimes of each sample were determined using the Optix MX2 system at room temperature within a 1.7 ml centrifuge tube. To investigate the effect of PIT using Pan-1R700, the FLT of each sample at the concentration of 50 pg/mL was measured after irradiating the samples at a PIT dose of 0, 2, 4, 8, 15, 30 J/cm2. […] The fluorescence intensities and lifetimes of each sample were then obtained. […] After that, these pellets were gently washed with PBS×1 and fluorescence intensity and lifetime images were obtained. To detect the antigen specific localization of IR700 and to confirm the morphological changes of A431 cells before and after PIT, fluorescence microscopy was performed using Olympus BX61 microscope (Olympus America) equipped with the following filters: a 590-650 nm excitation filter, a 665-740 nm band pass emission filter. […]

A431 (HER1+) tumors = experiment: In vivo PIT efficacy in A431 tumors
Method: To determine the effect of Pan-IR700 or carrier alone followed by PIT, the following methods were used. […] Four days after A431 cell injection as described above, tumor volume reaching around 40 mm^3 were selected for the study. […] To test a short-term toxicity, 300 μg of Pan-IR700 was repeatedly administrated intravenously for non-tumor-bearing mice, twice a week, for 4 weeks.

A431 cells [2] = type: cell-based
Method: EGFR-expressing A431 cells were used as the target HER1+ cells. […] Cells were grown in RPMI 1640 supplemented with 10% fetal bovine serum and 1% penicillin/streptomycin in tissue culture flasks in a humidified incubator at 37° C. in an atmosphere of 95% air and 5% carbon dioxide. A431 or Balb/3T3/DsRed cells were seeded on cover glass-bottomed dishes and incubated for 24 hours. Pan-IR700 was added to the culture medium at 10 μg/mL and incubated either for 1 hour on ice or 6 hours at 37° C., then cells were washed with PBS. Culture medium was replaced with phenol red-free medium after washing with phosphate buffered saline (PBS).
PIT was performed as described in Examples 2 and 3.

A431 tumors [3] = experiment: Histological analysis immediately after PIT; type: in vivo, mice
A431 tumors [4] = experiment: In vivo FLT imaging after PIT; parameters: species or system mice
Method: Reagents. […] All other chemicals used were of reagent grade. […] Then the mixture was purified with a Sephadex G50 column (PD-10; GE Healthcare). The protein concentrations were determined with Coomassie Plus protein assay kit (Pierce Biotechnology) by measuring light absorption at 595 nm (8453 Value System; Agilent Technologies). […] The number of IR700 per antibody was approximately 4 for the 1:4.5 reaction conditions. The addition of 0.4% SDS to the sample dissociated the fluorophores from each other, effectively causing dequenching. Quenching efficiency (QE) for a particular conjugation is defined as the fluorescence intensity with SDS divided by fluorescence intensity without SDS. […] Pan-1R700 was kept at 4° C. in the refrigerator as a stock solution. Fluorescence lifetime measurements. FLT experiments were performed with the eXplore OptixTm-MX2 system (ART Advanced Research Technologies, Inc.) (Hutchinson et al., Biophys J 68:1574-82, 1995; Ma et al., Appl Opt 46:1650-7, 2007). A fixed pulsed laser diode was used as an excitation source at a wavelength of 670 nm. Region of interest (ROI) measurements with a spot size of 1.5 mm were selected at the image plane. […] Lifetime analysis was performed by using the ART OptiView (ART Advanced Research Technologies, Inc.). Lifetime values and lifetime mapping were calculated to fit fluorescence temporal point-spread functions (TPSFs) as single-exponential models with the Fit TPSF tool. Photoimmunotherapy for in vitro and in vivo models. PIT was performed with a red light-emitting diode (LED) light at 680 to 700 nm wavelength (Tech-LED, Marubeni America Co.) (Mitsunaga et al., Bioconjug Chem. 23:604-9, 2012). Power densities were measured with an optical power meter (PM 100, Thorlabs). Determination of FLT for Pan-IR700. Samples of Pan-IR700 at concentrations of 2.5, 5, 20, 40 pg/mL were prepared by dilution with PBS. The fluorescence intensities and lifetimes of each sample were determined using the Optix MX2 system at room temperature within a 1.7 ml centrifuge tube. To investigate the effect of PIT using Pan-1R700, the FLT of each sample at the concentration of 50 pg/mL was measured after irradiating the samples at a PIT dose of 0, 2, 4, 8, 15, 30 J/cm2. Cell line. […] The cell line was grown in RPMI 1640 (Life Technologies) containing 10% fetal bovine serum (Life Technologies), 0.03% L-glutamine, 100 units/mL penicillin, and 100 μg/mL streptomycin in 5% CO2 at 37° C. Cell pellet FLT studies A431. Cells were plated on […] cell culture flasks and incubated until confluent. Then Pan-IR700 conjugate was added to the media (1 pg/mL), and cells were incubated for 24 h at 37° C. Upon completion of incubation, cells were removed from the flasks, and centrifuged to obtain pellets. The resulting cell pellets were washed with PBS×3 and placed in 1.7 mL centrifuge tubes. The fluorescence intensities and lifetimes of each sample were then obtained. […] After that, these pellets were gently washed with PBS×1 and fluorescence intensity and lifetime images were obtained. To detect the antigen specific localization of IR700 and to confirm the morphological changes of A431 cells before and after PIT, fluorescence microscopy was performed using Olympus BX61 microscope (Olympus America) equipped with the following filters: a 590-650 nm excitation filter, a 665-740 nm band pass emission filter. […]

Pan-IR700: Panitumumab (anti-human EGFR IgG2 MAb) conjugated to IR700; about 3 to 4 IR700 per antibody
fluorescence of HER1 negative tumor (3T3/HER2 tumor): the same as that of background; also recorded: did not show detectable fluorescence | shortening of FLT (A431 cells [1]; 8 J/cm^2 versus before light exposure): 9.1% | shortening of FLT (A431 cells [1]; 15 J/cm^2 versus before light exposure): 10.1% | shortening of FLT (A431 cells [1]; 30 J/cm^2 versus before light exposure): 13.1% | tumor shrinkage of irradiated tumor (A431 (HER1+) tumors; 300 μg, NIR light on day 1): Tumor shrinkage was confirmed on day 7 | survival time (A431 (HER1+) tumors; 30 J cm^−2): significant increases in survival time | tumor growth (A431 (HER1+) tumors; 30 J cm^−2, day 3, 7, 10, 14 and 17 after treatment): significant tumor growth inhibition | lethal side effects (A431 (HER1+) tumors; during or after the treatment): no lethal side effects were found | antitumor activity, 50 μg versus 300 μg (A431 (HER1+) tumors; following irradiation): less antitumor activity | pathological analysis of tumor (A431 (HER1+) tumors; four days following PIT): only scant viable A431 tumor cells were present | day at which PIT treated tumors began to shrink (A431 (HER1+) tumors; mouse, in vivo): 2 days | tissue edema (A431 (HER1+) tumors; mouse, in vivo): tissue edema developed superficially | cytotoxicity without excitation light (A431 cells [2]): no significant cytotoxicity | cell death after irradiation (A431 cells [2]; 0.5 to 2 J cm^−2): rapid cell death in a dose-dependent manner | cell killing by PIT (microscopy) (A431 cells [2]; FIG. 8): specifically killed | target-specific phototoxicity in co-culture (A431 cells [2]; co-cultured with Balb/3T3/DsRed (HER1 negative) cells): Target-specific phototoxicity was also confirmed | necrosis (H-E histology) (A431 tumors [3]; 10 J/cm^2): necrotic cell damage was found in only limited areas | necrosis (H-E histology) (A431 tumors [3]; 30 or 50 J/cm^2): Necrotic damage was diffuse and intense | FLT shortening compared with untreated control (A431 tumors [4]; 10 J/cm^2, 48 hours after PIT): 7.7% | FLT immediately after PIT, compared with no treatment controls (A431 tumors [4]; 30 J/cm^2): 61.5+/−5.1% and 61.5 ± 15.1% | FLT immediately after PIT, of untreated tumors in the same mouse (A431 tumors [4]; 30 J/cm^2): 61.5%+/−5.05 | FLT immediately after PIT, compared with no treatment controls (A431 tumors [4]; 50 J/cm^2): 69.1+/−10.9% | FLT immediately after PIT, of untreated tumors in the same mouse (A431 tumors [4]; 50 J/cm^2): 69.0%+110.92
